One molecule from US20240307507A1, “LACTOFERRIN COMPOSITIONS AND METHODS OF USE” (LACTEA THERAPEUTICS LLC, priority 2021, published 2024) can be followed below.

This assay has as its system SARS-COV-2. As to the kind of experiment: SARS-COV-2 Cytopathic Effect (CPE) reduction assay in Vero E6 cells. It counts as cell-based. The settings on record: Severe acute respiratory syndrome coronavirus 2, Vero C1008, 72 h. (In general: Cytopathic effects are the visible damage that an infection or toxin causes in cultured cells.)

Molecules are shown by their SMILES.

For orientation: EC50 means the concentration needed to bring the measured effect to its halfway point. Regarding `CCC(CC)COC(=O)[C@H](C)N[P@](=O)(OC[C@H]1O[C@@](C#N)(c2ccc3c(N)ncnn23)[C@H](O)[C@@H]1O)Oc1ccccc1` [Remdesivir, reference compound], the EC50 is 4.5 µM.
